Source: patent publication US7202280B2, “Methods for the treatment and prevention of pancreatitis and for induction of liver regeneration” (priority 2002, dated 2007)

Test system: syngenic and metallothionein-SSAT mice
Assay: Hepatic, pancreatic and renal polyamine concentration in syngenic and metallothionein-SSAT mice after analogue
Format: in vivo, mouse
Conditions: 24 h before sacrifice
Description: α-methylspermidine, Bis-α-methylspermine and α-methylspermine were administered in saline. […] The data are expressed as means ±S.D. For statistical analysis, the two-tailed Student's t test was used.

[1] = Tg (transgenic) mice, 12.5 mg/kg
[2] = Tg (transgenic) mice, 37.5 mg/kg

## CC(N)CCNCCCCNCCC(C)N (stereo not drawn) [bis-α-methylspermine, 1,12-dimethylspermine]
Sg (syngenic) mice, 50 mg/kg
  pancreatic polyamine concentration, N^8-Acetylspermidine: 82.23 pmoles/mg tissue wet weight
  pancreatic polyamine concentration, Putrescine: 297.48 ± 123.94^++ pmoles/mg tissue wet weight
  pancreatic polyamine concentration, Spermidine: 5613.06 ± 608.55 ^++ pmoles/mg tissue wet weight
  pancreatic polyamine concentration, Spermine: 561.50 ± 77.66 ^++ pmoles/mg tissue wet weight
  renal concentration, Bis-α-Methylspermine: 459.26 pmoles/mg tissue wet weight
  renal polyamine concentration, N^8-Acetylspermidine: 21.07 ± 5.81 pmoles/mg tissue wet weight
  renal polyamine concentration, Putrescine: 98.32 pmoles/mg tissue wet weight
  renal polyamine concentration, Spermidine: 248.63 pmoles/mg tissue wet weight
  renal polyamine concentration, Spermine: 424.06 pmoles/mg tissue wet weight
[1]
  hepatic concentration, Bis-α-Methylspermine: 29.55 pmoles/mg tissue wet weight
  hepatic polyamine concentration, N^1-Acetylspermidine: 226.74 pmoles/mg tissue wet weight
  hepatic polyamine concentration, N^8-Acetylspermidine: 9.43 pmoles/mg tissue wet weight
  hepatic polyamine concentration, Putrescine: 944.38 pmoles/mg tissue wet weight
  hepatic polyamine concentration, Spermidine: 792.81 pmoles/mg tissue wet weight
  hepatic polyamine concentration, Spermine: 104.48 pmoles/mg tissue wet weight
  pancreatic polyamine concentration, N^1-Acetylspermidine: 267.18 pmoles/mg tissue wet weight
  pancreatic polyamine concentration, Putrescine: 6168.51 ± 1253.00 pmoles/mg tissue wet weight
  pancreatic polyamine concentration, Spermidine: 3646.27 ± 367.99 pmoles/mg tissue wet weight
  pancreatic polyamine concentration, Spermine: 187.07 ± 5.15 pmoles/mg tissue wet weight
  renal polyamine concentration, N^1-Acetylspermidine: 19.74 pmoles/mg tissue wet weight
  renal polyamine concentration, N^8-Acetylspermidine: 16.35 ± 1.03 pmoles/mg tissue wet weight
  renal polyamine concentration, Putrescine: 184.32 pmoles/mg tissue wet weight
  renal polyamine concentration, Spermidine: 235.80 pmoles/mg tissue wet weight
  renal polyamine concentration, Spermine: 739.17 pmoles/mg tissue wet weight
Tg (transgenic) mice, 25 mg/kg
  hepatic concentration, Bis-α-Methylspermine: 105.83 pmoles/mg tissue wet weight
  hepatic polyamine concentration, N^1-Acetylspermidine: 219.53 pmoles/mg tissue wet weight
  hepatic polyamine concentration, N^8-Acetylspermidine: 9.03 pmoles/mg tissue wet weight
  hepatic polyamine concentration, Putrescine: 895.27 pmoles/mg tissue wet weight
  hepatic polyamine concentration, Spermidine: 673.04 pmoles/mg tissue wet weight
  hepatic polyamine concentration, Spermine: 66.74 pmoles/mg tissue wet weight
  pancreatic concentration, Bis-α-Methylspermine: 315.13 ± 82.18 pmoles/mg tissue wet weight
  pancreatic polyamine concentration, N^1-Acetylspermidine: 474.31 pmoles/mg tissue wet weight
  pancreatic polyamine concentration, N^8-Acetylspermidine: 64.06 pmoles/mg tissue wet weight
  pancreatic polyamine concentration, Putrescine: 7573.46 ± 1084.90 pmoles/mg tissue wet weight
  pancreatic polyamine concentration, Spermidine: 3389.87 ± 447.32 pmoles/mg tissue wet weight
  pancreatic polyamine concentration, Spermine: 73.43 ± 6.82 pmoles/mg tissue wet weight
  renal concentration, Bis-α-Methylspermine: 315.13 pmoles/mg tissue wet weight
  renal polyamine concentration, N^1-Acetylspermidine: 25.57 pmoles/mg tissue wet weight
  renal polyamine concentration, N^8-Acetylspermidine: 17.52 ± 3.88 pmoles/mg tissue wet weight
  renal polyamine concentration, Putrescine: 137.26 pmoles/mg tissue wet weight
  renal polyamine concentration, Spermidine: 216.59 pmoles/mg tissue wet weight
  renal polyamine concentration, Spermine: 565.06 pmoles/mg tissue wet weight
[2]
  hepatic concentration, Bis-α-Methylspermine: 158.82 pmoles/mg tissue wet weight
  hepatic polyamine concentration, N^1-Acetylspermidine: 355.10 pmoles/mg tissue wet weight
  hepatic polyamine concentration, N^8-Acetylspermidine: 19.03 pmoles/mg tissue wet weight
  hepatic polyamine concentration, Putrescine: 1032.66 pmoles/mg tissue wet weight
  hepatic polyamine concentration, Spermidine: 404.05 pmoles/mg tissue wet weight
  hepatic polyamine concentration, Spermine: 74.10 pmoles/mg tissue wet weight
  pancreatic concentration, Bis-α-Methylspermine: 421.62 ± 147.44 pmoles/mg tissue wet weight
  pancreatic polyamine concentration, N^1-Acetylspermidine: 339.96 pmoles/mg tissue wet weight
  pancreatic polyamine concentration, N^8-Acetylspermidine: 90.85 pmoles/mg tissue wet weight
  pancreatic polyamine concentration, Putrescine: 8158.57 ± 2876.94 pmoles/mg tissue wet weight
  pancreatic polyamine concentration, Spermidine: 2268.60 ± 1821.72 pmoles/mg tissue wet weight
  pancreatic polyamine concentration, Spermine: 98.77 ± 82.83 pmoles/mg tissue wet weight
  renal concentration, Bis-α-Methylspermine: 421.62 pmoles/mg tissue wet weight
  renal polyamine concentration, N^1-Acetylspermidine: 27.37 pmoles/mg tissue wet weight
  renal polyamine concentration, N^8-Acetylspermidine: 16.82 ± 4.23 pmoles/mg tissue wet weight
  renal polyamine concentration, Putrescine: 225.66 pmoles/mg tissue wet weight
  renal polyamine concentration, Spermidine: 185.57 pmoles/mg tissue wet weight
  renal polyamine concentration, Spermine: 426.59 pmoles/mg tissue wet weight
Tg (transgenic) mice, 50 mg/kg
  hepatic concentration, Bis-α-Methylspermine: 300.81 pmoles/mg tissue wet weight
  hepatic polyamine concentration, N^1-Acetylspermidine: 207.30 pmoles/mg tissue wet weight
  hepatic polyamine concentration, N^8-Acetylspermidine: 19.27 pmoles/mg tissue wet weight
  hepatic polyamine concentration, Putrescine: 717.95 pmoles/mg tissue wet weight
  hepatic polyamine concentration, Spermidine: 293.21 pmoles/mg tissue wet weight
  hepatic polyamine concentration, Spermine: 69.63 pmoles/mg tissue wet weight
  pancreatic concentration, Bis-α-Methylspermine: 400.64 ± 63.85 pmoles/mg tissue wet weight
  pancreatic polyamine concentration, N^1-Acetylspermidine: 288.51 pmoles/mg tissue wet weight
  pancreatic polyamine concentration, Putrescine: 5123.85 ± 573.32 pmoles/mg tissue wet weight
  pancreatic polyamine concentration, Spermidine: 2326.21 ± 126.42 pmoles/mg tissue wet weight
  pancreatic polyamine concentration, Spermine: 119.48 ± 37.92 pmoles/mg tissue wet weight
  renal concentration, Bis-α-Methylspermine: 400.64 pmoles/mg tissue wet weight
  renal polyamine concentration, N^8-Acetylspermidine: 12.21 ± 4.20 pmoles/mg tissue wet weight
  renal polyamine concentration, Putrescine: 173.97 pmoles/mg tissue wet weight
  renal polyamine concentration, Spermidine: 204.20 pmoles/mg tissue wet weight
  renal polyamine concentration, Spermine: 481.68 pmoles/mg tissue wet weight
